Experimental data: patent US11413278B2, “Compounds and methods for promoting stress resistance” (priority 2015, dated 2022)
Like-named read-outs stand apart in the source and are kept apart here.

Columns and labels:
FOXO3 = FOXO3 siRNA knockdown: dependency for H2O2-resistance; type: cell-based, human; conditions: for FOXO3-dependency for H2O2-resistance (experiment 3): with & without H2O2, FOXO3 knockdown in WI-38 cells; for Assay 16: FOXO3-dependency for H2O2-resistance: YES/NO; for Requirement of FOXO3 to promote H2O2-resistance: FOXO3 siRNA, at least 2 of 3 independent experiments
Description: For qPCR analysis, WI-38 cells were treated with small molecules (at 10 μM) (biological quadruplicates) for 24 hrs and processed for RNA isolation and reverse transcription (RT) with the Cells-to-Ct Kit (Life Technologies), following manufacturer's instructions. RT products were diluted with H2O and used for qPCR analysis on an ABI 7300 system (Life Technologies) (technical triplicates). Relative expression levels of target genes were normalized to the genes B2M, PPIA and GAPDH. To knock down the expression of FOXO3 or NRF2, WI-38 cells were transfected, using the RNAiMAX reagents (Life Technologies), with siRNA oligos (at 10 nM final concentration, 10 ml culture medium) for FOXO3 (Life Technologies) or NRF2 (Integrated DNA Technologies) on 10-cm petri dishes for 36 hrs, and then detached and aliquoted onto 96-well (for qPCR analysis) or 384-well plates (for H2O2-stress treatment). ˜24 hrs later, small molecules were introduced and incubated with cells for 24 hrs. Cells were then either processed with the Cells-to-Ct Kit to prepare RT products for qPCR analysis or subjected to H2O2 (700 μM) for 3 hrs and assayed for viability. The knockdown efficiency of FOXO3 or NRF2 was checked at 36 hrs post-transfection and at the end as well. […]
Applicants used siRNA to knock down FOXO3 expression by ˜70% in an attempt to identify whether the activation of these genes depends on activity of FOXO3 and/or NRF2. […] We used siRNA to knock down FOXO3 expression by ˜60% to 70% (FIG. 3; see data in Table 6). […] (Given the caveat that FOXO3 was not fully knocked down, partial dependency was scored when the H2O2-resistance capacity was reduced by at least 25% but less than 50% upon siRNA knockdown). At least for Gr-7A and Gr-7C, which are structurally related, the observed FOXO3-dependency for H2O2-resistance is consistent with their strong effects to induce FOXO3 target genes (Tables 1a-1f, Table 6, & Table 15), including SOD2 and GADD45A.

[1] = system: phosphorylated γH2A.X and TP53BP1; test: DNA damage marker analysis (immuno-staining); conditions: for activity at 10 µM: Homo sapiens, WI-38, 24 h; for P = Potential DNA-damaging / R = Potential DNA damaging: human, 24 h
Description: WI-38 cells were seeded on 96-well plates and cultured for 24 hrs and then incubated with small molecules for another 24 hrs. As the positive control to damage DNA, H2O2 was supplemented at 700 μM final concentration for the last 3 hrs. Cells were washed with phosphate-buffered saline (PBS), fixed with 4% paraformaldehyde and then blocked with 5% normal goat serum (Cell Signaling), plus 0.3% Triton X-100, for 1 hr. Primary antibody cocktail (rabbit anti-phospho-histone γH2A.X (Ser-139), 1:100; anti-phospho-TP53BP1 (Ser-1778), 1:100), prepared in 1% BSA and 0.3% Triton X-100/PBS, was then introduced and incubated overnight at 4 C. Next day, samples were washed with PBS and further incubated with fluorophore-conjugated secondary antibody (1:1,000) for 1 hr in the dark. Samples were then washed and incubated with DAPI dye (Life Technologies) (4 μg/ml final concentration) for the last 10 minutes. Images were collected on an INCell Analyzer 2000 (GE) and analyzed with the Developer software.
WI-38 cells were seeded (˜8,000 cells per well) on 96-well plates and cultured for 24 hrs and then incubated with small molecules for another 24 hrs. Doxorubicin (300 nM, 24 hrs) and H2O2 (700 μM, 3 hrs) were also introduced as the positive controls to damage DNA. Cells were washed with phosphate-buffered saline (PBS), fixed with 4% paraformaldehyde for 30 min and then blocked with 5% normal goat serum (Cell Signaling) and 0.3% Triton X-100 for 1 hr. Primary antibody cocktail (Cell Signaling, rabbit anti-phospho-histone γH2A.X (Ser-139), 1:100; anti-phospho-TP53BP1 (Ser-1778), 1:100) was prepared in PBS with 1% BSA and 0.3% Triton X-100 and incubated overnight at 4° C. Next day, samples were washed with PBS and further incubated with fluorophore-conjugated secondary antibody (1:1,000) for 1 hr in dark. Samples were then washed and incubated with DAPI dye (Life Technologies) (4 μg/ml final concentration) for 30 minutes. Images were collected on the INCell Analyzer 2000 (10× objective) and analyzed with the Developer Toolbox.

WI-38 cells = conditions: for No H2O2 stress treatment, at 10 uM (fold change): normalized ATP measurement; for Assay 1: H2O2-resistant: YES/NO, if NO, possibly due to repeated freezing/thawing of stocks
mTOR = mTOR inhibition (RPS6 phosphorylation status), In-Cell Western; type: cell-based, human
Description: In-Cell Western assays were performed, following a standard immuno-staining protocol. Briefly, WI-38 cells were treated with small molecules for 24 hrs, and then processed and incubated with primary antibody cocktail (Cell Signaling, mouse anti-RPS, 1:25; rabbit-anti-pRPS6-(Ser-235/236), 1:100) overnight at 4° C. Next day, samples were processed and incubated with fluorophore-conjugated secondary antibodies (Cell Signaling, DyLight 680-goat anti-mouse, 1:500; DyLight 800-goat anti-rabbit, 1:1,000). Images were collected on an Odyssey Imager (LI-COR) and analyzed with the Image Studio Lite software (version 5.0.21).
Mammalian target of rapamycin (mTOR) is a crucial regulator of cell growth and metabolism and has been implicated in aging and many diseases, including cancer, diabetes and neurological diseases (Dazert and Hall, 2011; Zoncu et al., 2011). […] In addition, the anti-diabetes drug metformin (Kalender et al., 2010), as well as other AMPK activators such as 2-deoxy-D-glucose (Inoki et al., 2003) and AICAR (Shaw et al., 2004), could inhibit mTORC1. Applicants examined the effects of our molecules (at three doses, 5 μM, 10 μM and 20 μM) on the phosphorylation status of ribosomal protein S6 (RPS6), a readout of mTOR activity, to ask whether they could inhibit mTOR.
In-Cell Western assays were performed, following the same procedures to analyze DNA-damage markers. WI-38 cells were incubated with small molecules for 24 hrs, and then processed and incubated with primary antibody cocktail (mouse anti-RPS, 1:25; rabbit-anti-pRPS6, 1:100) overnight at 4° C. Next day, samples were processed and incubated with fluorophore-conjugated secondary antibodies (goat anti-mouse, 1:500; goat anti-rabbit, 1:1,000) in antibody dilution buffer. Images were collected on an Odyssey Imager (LI-COR) and analyzed with the Image Studio Lite software.

[2] = read-out: Experiment 1, H2A.X-P DNA damage foci staining (no H2O2 stress treatment), at 10 uM
[3] = read-out: Experiment 2, H2A.X-P DNA damage foci staining (no H2O2 stress treatment), at 10 uM
[4] = read-out: Experiment 2, H2A.X-P DNA damage foci staining (under H2O2 stress treatment), at 10 uM
[5] = read-out: Experiment 2, TP53BP1-P DNA damage foci staining (no H2O2 stress treatment), at 10 uM
[6] = read-out: Experiment 2, TP53BP1-P DNA damage foci staining (under H2O2 stress treatment), at 10 uM
[7] = WI-38 cells, 10 μM, (*) = compromised ability to protect cells from H2O2, could be due to stability issue
[8] = asterisks indicate the loss of the ability to protect cells from H2O2 over time
[9] = derived from dose response curves, 0.6-20 uM, H2O2-resistance of WI-38 cells
[10] = read-out: Est. ED50, dose response 0.6-20 μM, H2O2-resistance
[11] = 10 uM, YES = resistance reduced by at least 50%, partial = 25% to 50%
[12] = 10 uM, with H2O2, FOXO3 knockdown in WI-38 cells, YES = resistance reduced by at least 50%, partial = 25% to 50%

SMILES | I = FOXO3-dependency for H2O2-resistance (FOXO3; score) | I = FOXO3-dependency for H2O2-resistance (FOXO3; summary score) | activity at 10 µM [1, 2] | activity at 10 µM [1, 3] | activity at 10 µM [1, 4] | activity at 10 µM [1, 5] | activity at 10 µM [1, 6] | P = Potential DNA-damaging [1] | R = Potential DNA damaging [1] | H2O2-resistant (WI-38 cells; [7]) | No H2O2 stress treatment, at 10 uM (fold change) (WI-38 cells; WI-38 cells) | Assay 1: H2O2-resistant (WI-38 cells) | H2O2-resistant (WI-38 cells; [8]) | EC50 (WI-38 cells; [9]) | EC50 (WI-38 cells; [10]) | G = mTOR down-regulation (mTOR; 2-point score) | G = mTOR down-regulation (mTOR; summary score) | FOXO3-dependency for H2O2-resistance, at 10 uM (experiment 3) - with & without H2O2 (FOXO3; 10 uM) | FOXO3-dependency for H2O2-resistance (experiment 3) (FOXO3; [11]) | Assay 16: FOXO3-dependency for H2O2-resistance (FOXO3; 10 uM) | other results
O=[N+]([O-])c1ccccc1S(=O)(=O)Nc1cccc2cccnc12 [Gr-3A] | 0 | 0 | 139% | 338% | 143% | 334% | 66.1% | 1 | 1 | YES | 0.98 fold change | YES | YES | 11.2 µM | 4.21 µM | 0 | 0 | – | – | – | –
O=C(Nc1cccc(Cl)c1)c1ccc([N+](=O)[O-])o1 [Gr-1D] | 0 | 0 | 232% | 353% | 164% | 353% | 554% | 1 | 1 | YES | 0.91 fold change | YES | YES | 4.6 µM | 2.68 µM | 0 | 0 | – | – | – | –
Oc1ncnc2sc3c(c12)CCC3 [O14] | 0 | 0 | 116% | 85.3% | 221% | 159% | 254% | 0 | 0 | YES | 1.11 fold change | YES | YES | 12.5 µM | 12.5 µM | 0 | 0 | – | – | – | –
Cc1ccc(NC(=O)c2ccc([N+](=O)[O-])o2)cc1C [Gr-1F] | 0 | 0 | 219% | 378% | 127% | 460% | 558% | 1 | 1 | YES | 0.60 fold change | YES | YES | 14.8 µM | 2.88 µM | 0 | 0 | YES | YES | – | –
CCCN1C/C(=C\c2ccc(F)cc2)C(=O)/C(=C/c2ccc(F)cc2)C1 [O15] | 1 | 1 | 90% | 184% | 58.4% | 48.3% | 251% | 0 | 0 | YES (*) | 0.98 fold change | YES | YES (*) | – | 20 µM | 0 | 0 | YES | YES | YES | FOXO3-dependency for H2O2-resistance, at 10 uM - with H2O2, 1st experiment (FOXO3; 10 uM, experiment 1 (1st), with H2O2): 1st, YES;; FOXO3-dependency for H2O2-resistance, 1st experiment (FOXO3; [12]): YES;; Requirement of FOXO3 to promote H2O2-resistance (FOXO3): required FOXO3
COC(=O)CCc1sc2c(c1[N+](=O)[O-])NC(=O)CCC2 [O20] | 1 | 1 | 115% | 130% | 178% | 108% | 544% | 0 | 0 | YES | 1.12 fold change | YES | YES | 12.9 µM | 12.9 µM | 0 | 0 | YES | YES | YES | FOXO3-dependency for H2O2-resistance, at 10 uM - with H2O2, 2nd experiment (FOXO3; 10 uM, experiment 2 (2nd), with H2O2): 2nd, YES.; FOXO3-dependency for H2O2-resistance, 2nd experiment (FOXO3; [12]): YES.; Requirement of FOXO3 to promote H2O2-resistance (FOXO3): required FOXO3
